Measured values from US20150289512A1, “METHOD FOR PROMOTING PLANT GROWTH” (SUMITOMO CHEMICAL COMPANY, LIMITED, priority 2012, published 2015).

Legend:
Type in all cases: in vivo
[1] = system: Rice (variety: Nipponbare); test: Test Example 3: promotion of root growth by hydroponics of rice, 0.1 ppm; settings: hydroponic solution containing the test compound at 0.1 ppm, average of 4 or 5 individuals
Description: (§1) Test for Evaluating Promotion of Root Growth by Hydroponics of Rice
(§2) Rice (variety: Nipponbare)
A DMSO solution, which contained one of the compounds 2, 6, 7, 16, 20, 33, 34, 36, 37, 38, 40, 41, 43, 44, 45, 46, 47, 48, 50, 51, 52, 53, 54, 55, 56, 61, 64, 67, 68, 71, 72, 73, 74, 75, 76, 79, 80, 81 and 83 of the present invention at a concentration of 1,000 ppm, was added to Hoagland hydroponic solution (Hoagland and Arnon, California Agricultural Experiment Station 1950 Circular 347 pp. 34) of ¼-fold concentration at a volume ratio of 1/10,000. In this manner, hydroponic solutions containing one of the compounds 2, 6, 7, 16, 20, 33, 34, 36, 37, 38, 40, 41, 43, 44, 45, 46, 47, 48, 50, 51, 52, 53, 54, 55, 56, 61, 64, 67, 68, 71, 72, 73, 74, 75, 76, 79, 80, 81 and 83 of the present invention at 0.1 ppm were prepared respectively. As an untreated control plot, a hydroponic solution obtained by adding DMSO to Hoagland hydroponic solution of ¼-fold concentration at a volume ratio of 1/10,000 was used.
Rice seeds were soaked in a 1% aqueous sodium hypochlorite solution for 10 minutes, then soaked in a 70% ethanol solution for surface sterilization, and then washed with distilled water. The sterilized seeds were soaked in a hydroponic solution containing the test compound described above at 0.1 ppm and incubated in a dark place for 3 days at 28° C. to perform treatment for hastening germination.
(§3) Thereafter, 30 ml of hydroponic solution containing the test compound at 0.1 ppm was dispensed in a plastic tube (diameter of 20 mm×height of 113 mm) of which the side was covered with cardboard to block light. A float prepared using a styrene board and vinyl mesh was floated, and the rice seeds that had undergone the treatment for hastening germination were placed on the float on the surface of the hydroponic solution. The seeds were cultivated for 3 days at 26° C., an illuminance of 4,000 lux of the top surface of the tube, a humidity of 50%, and a day length of 16 hours.
The nursery plants of rice obtained after culturing were measured in terms of the length of seminal root by using WinRHIZO system (manufactured by Regent Instruments Inc). For each test plot, an average of the measured values of the seminal root of 4 or 5 individuals was determined.

[2] = system: Corn seeds (variety: Pioneer 120 31P41); test: Test Example 14: growth promotion under low-temperature stress by soil drench treatment of corn; settings: soil drench 20 ml, low-temperature stress 5 days at 2.5° C., health score 0-5, average of 4 individuals; for change in vivo at 3 ppm: concentration tested 3 ppm
Description: Test for Evaluating Growth Promotion Under Low-Temperature Stress by Soil Drench Treatment of Corn
Corn seeds (variety: Pioneer 120 31P41) were seeded in a culture soil (Aisai) in a plastic pot (φ55 mm×height of 58 mm), and cultivated for 7 days at 20-25° C., an illuminance of about 5,000 lux, and a day length of 16 hours.
A DMSO solution, which contained one of the compounds 1 to 9, 16, 17, 20, 23, 24, 28 to 32, 34, 45, 48, 50, 82 and 85 of the present invention at a concentration of 1,000-fold concentration of each test concentration, was prepared, and then diluted with distilled water to obtain each test solution. After that, 20 ml of the obtained test solution was used to perform soil drench treatment on the foot of the test plants. The test plants were cultivated for 2 days under the conditions of a temperature of 27° C., a humidity of 40-80%, an illuminance of about 5,000 lux, and a day length of 16 hours. This was used as a test plot treated with the compound. A plot having undergone the soil drench treatment with 20 ml of a 0.1% DMSO aqueous solution instead of the above DMSO solution containing the compound was used as an untreated control plot.
The plants having undergone the soil drench treatment were cultivated for 5 days under the conditions of a temperature of 2.5° C., a humidity of 40-80%, an illuminance of about 5,000 lux, and a day length of 16 hours, thereby exposing to low-temperature stress. After the exposure to the low-temperature stress, the plants were cultivated for 4 days under the conditions of a temperature of 27° C., a humidity of 40-80%, an illuminance of about 5,000 lux, and a day length of 16 hours.
After the cultivation, the health of each plant was scored according to the following evaluation index.
5: 4 or more leaves in which ⅔ or more of the area was healthy
4: 3 leaves in which ⅔ or more of the area was healthy
3: 2 leaves in which ⅔ or more of the area was healthy
2: 1 leaf in which ⅔ or more of the area was healthy
1: No leaf in which ⅔ or more of the area was healthy
An average of the scores of the health of 4 individuals was determined.

[3] = system: Rice (variety: Nipponbare); test: Test Example 1: promotion of root growth by hydroponics of rice, 10 ppm; settings: Oryza sativa, hydroponic solution containing the test compound at 10 ppm, average of 4 or 5 individuals, read-out: Relative value of length of seminal root (%-untreated control plot)
Summary of the method: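 Surface-sterilised seeds germinated 3 days in the dark at 28° C in hydroponic solution with compound at 10 ppm, then grown 3 days hydroponically with compound at 10 ppm (26° C, 4,000 lux, 16 h day, 50% humidity). Seminal root length measured by image analysis, averaged over 4 or 5 plants per plot.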

[4] = system: Nicotiana benthamiana; test: Test Example 4: growth promotion under low-temperature stress by hydroponics of Nicotiana benthamiana, 10 ppm; settings: 10 ppm in medium, low-temperature stress 7 days at 1.5±1.0° C., green leaf area 3 days later, equation (1)
Description: Test for Evaluating Growth Promotion Under Low-Temperature Stress by Hydroponics of Nicotiana benthamiana
A DMSO solution, which contained one of the compounds 1, 8, 9, 13, 18, 19, 22, 23, 29, 32, 33, 34, 39, 40, 41, 43, 44, 51, 53, 54, 55, 56, 58, 60, 62, 63, 64, 65, 67, 69, 71, 73, 74, 75, 77, 79, 82, 83 and 86 of the present invention at a concentration of 10,000 ppm, was prepared. The DMSO solution of the compound of the present invention was added at a volume ratio of 1/1,000 to the Murashige•Scoog medium of a ½-fold concentration (a medium containing 2.3 g of mixed salts for the Murashige•Scoog medium (manufactured by Wako Pure Chemical Industries, Ltd.), 200 mg of Myo-inositol (manufactured by Sigma-Aldrich Co. LLC.), 2 mg of nicotinic acid (manufactured by Wako Pure Chemical Industries, Ltd.), 2 mg of pyridoxine hydrochloride (manufactured by Wako Pure Chemical Industries, Ltd.), 20 mg of thiamine hydrochloride (manufactured by Wako Pure Chemical Industries, Ltd.), 20 g of sucrose (manufactured by Wako Pure Chemical Industries, Ltd.), and 1 g of MES (manufactured by DOJINDO LABORATORIES) per 1 L of water and having pH adjusted to 5.8), thereby preparing a medium containing the compound of the present invention at a concentration of 10 ppm.
Seeds of Nicotiana benthamiana were seeded in the 5 μL of the medium and cultured overnight at 22° C. Thereafter, 45 μL of the medium containing the compound of the present invention at a concentration of 10 ppm was added thereto, and the seeds are cultivated for 7 days at 22° C., an illuminance of 4,000 lux, and a day length of 16 hours, and the nursery plants raised from the Nicotiana benthamiana were treated with the compound. Moreover, instead of the above medium, a test plot, which was obtained by performing the same treatment by using a medium prepared by adding DMSO to the Murashige•Scoog medium of ½-fold concentration at a volume ratio of 1/1,000, was used as a control plot not treated with the compound.
The nursery plants of the Nicotiana benthamiana treated with the compound were subjected to low-temperature treatment by being cultivated for 7 days at 1.5±1.0° C., an illuminance of 2,000 lux, and a day length of 16 hours.
The nursery plants of the Nicotiana benthamiana having undergone the low-temperature stress treatment were cultivated for 3 days at 22° C., an illuminance of 4,000 lux, and a day length of 16 hours. Thereafter, the area of green leaf was quantified by Scanalyzer HTS (manufactured by LemnaTec GmbH). Moreover, the value of the control plot not treated with the compound that had not yet been subjected to the low-temperature stress treatment was measured in the same manner. A value of a relative leaf area was calculated based on the following equation (1), and if the value of a relative leaf area was 5 or greater, the compound was evaluated to have a mitigating effect. As a result of the evaluation, it was confirmed that when the plant was treated with one of the compounds 1, 8, 9, 13, 18, 19, 22, 23, 29, 32, 33, 34, 39, 40, 41, 43, 44, 51, 53, 54, 55, 56, 58, 60, 62, 63, 64, 65, 67, 69, 71, 73, 74, 75, 77, 79, 82, 83 and 86 of the present invention at 10 ppm, the value of a relative leaf area was 5 or greater, compared to the area of green leaf of the control plot not treated with compound. Accordingly, it was confirmed that the treatment using the compound of the present invention brings about a growth promotion effect.
Relative leaf area=100*(a green area of a plot treated with the compound of the present invention−a green area of a control plot not treated with the compound of the present invention)/(a green area of a control plot not treated with the compound of the present invention that has not yet been subjected to low-temperature stress treatment−a green area of a control plot not treated with the compound of the present invention) Equation (1): […]

[5] = system: Rice (variety: Nipponbare); test: Test Example 2: promotion of root growth by hydroponics of rice, 1 ppm; settings: hydroponic solution containing the test compound at 1 ppm, average of 4 or 5 individuals
Description: as §1, §2
A DMSO solution, which contained one of the compounds 1, 3, 11, 12, 14, 15, 17, 21, 28, 30, 33, 34, 35, 36, 37, 38, 40, 41, 43, 44, 45, 46, 47, 49, 50, 51, 52, 53, 54, 55, 56, 61, 62, 63, 65, 67, 68, 69, 70, 73, 74, 75, 76, 77, 80, 82, 83, 85 and 86 of the present invention at a concentration of 10,000 ppm, was added to Hoagland hydroponic solution (Hoagland and Arnon, California Agricultural Experiment Station 1950 Circular 347 pp. 34) of ¼-fold concentration at a volume ratio of 1/10,000. In this manner, hydroponic solutions containing one of the compounds 1, 3, 11, 12, 14, 15, 17, 21, 28, 30, 33, 34, 35, 36, 37, 38, 40, 41, 43, 44, 45, 46, 47, 49, 50, 51, 52, 53, 54, 55, 56, 61, 62, 63, 65, 67, 68, 69, 70, 73, 74, 75, 76, 77, 80, 82, 83, 85 and 86 of the present invention at 1 ppm were prepared respectively. As an untreated control plot, a hydroponic solution obtained by adding DMSO to Hoagland hydroponic solution of ¼-fold concentration at a volume ratio of 1/10,000 was used. Rice seeds were soaked in a 1% aqueous sodium hypochlorite solution for 10 minutes, then soaked in a 70% ethanol solution for surface sterilization, and then washed with distilled water. The sterilized seeds were soaked in a hydroponic solution containing the test compound described above at 1 ppm and incubated in a dark place for 3 days at 28° C. to perform treatment for hastening germination.
as §3, with “1” for “0.1”
The nursery plants of rice obtained after cultivation were measured in terms of the length of seminal root by using WinRHIZO system (manufactured by Regent Instruments Inc). For each test plot, an average of the measured values of the seminal root of 4 or 5 individuals was determined.

[6] = Zea mays, 120 h, read-out: Relative value of score (%- untreated control plot)

| SMILES | Relative value of score (%- untreated control plot) ([2]; concentration tested 10 ppm) | change in vivo at 10 ppm [3] | relative leaf area at 10 ppm [4] | change in vivo at 3 ppm [2, 6] | Relative value of length of seminal root (%-untreated control plot) [5] | also measured |
| --- | --- | --- | --- | --- | --- | --- |
| COC(=O)c1cc2c(C(F)(F)F)cccc2[nH]1 [Compound 6] | >5% |  |  |  |  | Relative value of length of seminal root (%-untreated control plot) [1]: >5% |
| COC(=O)c1nc2cc(C(F)(F)F)ccc2s1 [Compound 29, methyl 5-trifluoromethylbenzothiazole-2-carboxylate] |  | > 5% | ≥ 5% | > 5% |  |  |
| COC(=O)c1cc2cc(C(F)(F)F)ccc2[nH]1 [Compound 8, methyl 5-trifluoromethylindole-2-carboxylate] |  | > 5% | ≥ 5% | > 5% |  |  |
| O=C(O)c1nc2cccnc2[nH]1 [Compound 28] | >5% |  |  |  | >5% |  |
| COC(=O)c1cc2ccc(C(F)(F)F)cc2o1 [Compound 48] |  |  |  |  |  | change in vivo at 0.1 ppm ([1]; Oryza sativa, read-out: Relative value of length of seminal root (%-untreated control plot)): > 5%; change in vivo at 10 ppm ([2]; Zea mays, 120 h, concentration tested 10 ppm, read-out: Relative value of score (%- untreated control plot)): > 5% |
| COC(=O)c1nc2ccccc2s1 [Compound 30] | >5% |  |  |  | >5% |  |
